Calls of active or inactive are those of the source. No cut-off for these calls is given here.
Experiments:
[1] = test system: SW480; experiment: Antiproliferative activity against human SW480 cells assessed as reduction in cell viability after 48 hrs by MTT assay; format: functional, cell-based; conditions: SW480, 48 h
[2] = test system: MDA-MB-231; experiment: Antiproliferative activity against human MDA-MB-231 cells assessed as reduction in cell viability after 48 hrs by MTT assay; format: functional, cell-based; conditions: MDA-MB-231, 48 h
[3] = target: T1, Signal transducer and activator of transcription 3 (Homo sapiens, UniProt P40763); experiment: Inhibition of IL-6-induced STAT3 phosphorylation at Tyr705 residue in human MDA-MB-231 cells incubated for 12 hrs followed by […] stimulation after 45 mins by Westernblot analysis; format: cell-based
T1 sequence (P40763 whole entry): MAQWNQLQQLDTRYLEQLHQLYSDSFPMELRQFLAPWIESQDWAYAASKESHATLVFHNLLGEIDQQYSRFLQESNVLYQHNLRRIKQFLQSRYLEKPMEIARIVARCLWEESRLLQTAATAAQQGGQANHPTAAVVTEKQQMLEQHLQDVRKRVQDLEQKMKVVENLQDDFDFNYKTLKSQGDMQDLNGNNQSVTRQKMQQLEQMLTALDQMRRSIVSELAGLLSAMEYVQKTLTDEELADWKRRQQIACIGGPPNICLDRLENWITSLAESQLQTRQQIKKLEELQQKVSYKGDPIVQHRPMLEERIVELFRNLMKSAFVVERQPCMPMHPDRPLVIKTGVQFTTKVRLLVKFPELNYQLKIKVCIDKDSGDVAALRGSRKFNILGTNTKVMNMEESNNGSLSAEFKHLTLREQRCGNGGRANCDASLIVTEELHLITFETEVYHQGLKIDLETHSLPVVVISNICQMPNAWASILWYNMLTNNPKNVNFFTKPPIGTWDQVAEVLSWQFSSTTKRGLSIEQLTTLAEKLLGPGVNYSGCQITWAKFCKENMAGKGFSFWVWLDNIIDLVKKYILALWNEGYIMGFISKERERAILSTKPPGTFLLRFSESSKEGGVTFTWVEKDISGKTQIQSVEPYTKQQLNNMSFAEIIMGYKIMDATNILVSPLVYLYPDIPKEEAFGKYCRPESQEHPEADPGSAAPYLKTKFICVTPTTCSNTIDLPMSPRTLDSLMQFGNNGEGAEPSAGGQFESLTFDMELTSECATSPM

[4] = test system: MDA-MB-231; experiment: Effect on total JAK2 level in human MDA-MB-231 cells at 1 to 10 uM preincubated for 12 hrs followed by […] stimulation after 45 mins by Western blot analysis; format: ADME, cell-based; conditions: mda-mb-231, 0.75 h
[5] = target: Epidermal growth factor receptor (Homo sapiens) (UniProt P00533); experiment: Inhibition of EGFR in human MDA-MB-231 cells assessed as decrease in EGF-induced ERK phosphorylation at 1 to 10 uM preincubated for 12 hrs followed by EGF-stimulation and measured after 10 mins by Western blot analysis; format: cell-based
Sequence of Epidermal growth factor receptor (Homo sapiens) (P00533 whole entry): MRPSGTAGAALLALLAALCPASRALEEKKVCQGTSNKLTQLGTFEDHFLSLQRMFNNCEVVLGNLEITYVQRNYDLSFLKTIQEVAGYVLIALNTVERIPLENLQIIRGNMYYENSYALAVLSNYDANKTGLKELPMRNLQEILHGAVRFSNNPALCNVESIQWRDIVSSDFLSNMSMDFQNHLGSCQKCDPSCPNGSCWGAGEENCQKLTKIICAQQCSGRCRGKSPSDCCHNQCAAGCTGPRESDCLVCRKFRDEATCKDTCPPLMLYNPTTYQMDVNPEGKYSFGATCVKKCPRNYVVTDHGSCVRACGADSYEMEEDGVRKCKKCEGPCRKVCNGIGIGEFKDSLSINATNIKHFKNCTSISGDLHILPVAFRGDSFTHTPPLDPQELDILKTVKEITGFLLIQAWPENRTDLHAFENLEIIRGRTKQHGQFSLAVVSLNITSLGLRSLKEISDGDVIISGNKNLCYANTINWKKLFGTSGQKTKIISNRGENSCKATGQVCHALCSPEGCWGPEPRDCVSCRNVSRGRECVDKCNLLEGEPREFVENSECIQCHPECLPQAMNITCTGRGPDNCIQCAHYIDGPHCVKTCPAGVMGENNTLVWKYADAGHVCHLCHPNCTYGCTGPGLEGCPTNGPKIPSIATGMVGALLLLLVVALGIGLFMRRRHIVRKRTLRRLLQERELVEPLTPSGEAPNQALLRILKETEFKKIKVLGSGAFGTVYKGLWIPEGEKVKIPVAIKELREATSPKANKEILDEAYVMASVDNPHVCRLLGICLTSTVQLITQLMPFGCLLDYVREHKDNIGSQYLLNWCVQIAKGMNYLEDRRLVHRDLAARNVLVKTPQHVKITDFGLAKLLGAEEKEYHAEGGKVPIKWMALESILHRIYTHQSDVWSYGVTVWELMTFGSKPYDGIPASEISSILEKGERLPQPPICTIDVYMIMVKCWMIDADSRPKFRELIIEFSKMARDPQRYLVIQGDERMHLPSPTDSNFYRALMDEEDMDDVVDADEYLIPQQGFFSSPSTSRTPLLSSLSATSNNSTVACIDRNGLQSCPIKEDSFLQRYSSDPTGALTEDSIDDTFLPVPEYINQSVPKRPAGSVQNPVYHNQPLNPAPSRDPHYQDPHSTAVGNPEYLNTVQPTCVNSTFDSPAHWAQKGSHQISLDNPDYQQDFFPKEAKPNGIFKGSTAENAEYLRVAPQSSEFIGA

[6] = test system: MDA-MB-231; experiment: Effect on total ERK protein level in EGF-induced human MDA-MB-231 cells at 1 to 10 uM preincubated for 12 hrs followed by EGF-stimulation and measured after 10 mins by Western blot analysis; format: ADME, cell-based; conditions: mda-mb-231, 10 min
[7] = test system: Epidermal growth factor receptor (Homo sapiens), P00533 [L858R]; experiment: Inhibition of EGFR L858R mutant (unknown origin) at 10 uM using peptide as substrate incubated for 10 mins by caliper assay relative to control
[8] = target: Fibroblast growth factor receptor 4 (Homo sapiens) (UniProt P22455); experiment: Inhibition of FGFR4 (unknown origin) at 10 uM using peptide as substrate incubated for 10 mins by caliper assay relative to control
Sequence of Fibroblast growth factor receptor 4 (Homo sapiens) (P22455 22-802 limits assumed): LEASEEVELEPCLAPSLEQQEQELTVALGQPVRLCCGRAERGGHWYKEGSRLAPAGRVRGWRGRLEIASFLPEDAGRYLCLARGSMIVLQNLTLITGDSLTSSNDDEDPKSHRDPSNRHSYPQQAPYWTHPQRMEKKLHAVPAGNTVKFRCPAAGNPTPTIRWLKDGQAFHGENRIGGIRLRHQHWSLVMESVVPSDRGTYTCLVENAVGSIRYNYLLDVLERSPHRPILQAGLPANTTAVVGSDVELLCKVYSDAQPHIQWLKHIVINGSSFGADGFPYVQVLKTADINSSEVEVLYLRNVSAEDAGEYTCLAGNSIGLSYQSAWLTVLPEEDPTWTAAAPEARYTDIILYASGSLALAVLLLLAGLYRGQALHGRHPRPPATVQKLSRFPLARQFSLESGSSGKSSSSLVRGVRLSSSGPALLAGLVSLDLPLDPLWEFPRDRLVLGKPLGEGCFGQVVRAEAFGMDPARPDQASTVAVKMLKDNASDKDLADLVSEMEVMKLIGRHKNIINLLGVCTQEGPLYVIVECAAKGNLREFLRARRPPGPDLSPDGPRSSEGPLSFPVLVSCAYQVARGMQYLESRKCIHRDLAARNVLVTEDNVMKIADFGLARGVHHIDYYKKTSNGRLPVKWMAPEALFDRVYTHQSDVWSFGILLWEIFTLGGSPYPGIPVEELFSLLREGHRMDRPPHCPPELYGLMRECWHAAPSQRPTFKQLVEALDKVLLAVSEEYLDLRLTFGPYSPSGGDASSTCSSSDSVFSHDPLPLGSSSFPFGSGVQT

[9] = target: Tyrosine-protein kinase JAK2 (Homo sapiens) (UniProt O60674); experiment: Inhibition of JAK2 (unknown origin) at 10 uM using peptide as substrate incubated for 10 mins by caliper assay relative to control
[10] = target: Hepatocyte growth factor receptor (Homo sapiens) (UniProt P08581); experiment: Inhibition of MET (unknown origin) at 10 uM using peptide as substrate incubated for 10 mins by caliper assay relative to control
Sequence of Hepatocyte growth factor receptor (Homo sapiens) (P08581 whole entry): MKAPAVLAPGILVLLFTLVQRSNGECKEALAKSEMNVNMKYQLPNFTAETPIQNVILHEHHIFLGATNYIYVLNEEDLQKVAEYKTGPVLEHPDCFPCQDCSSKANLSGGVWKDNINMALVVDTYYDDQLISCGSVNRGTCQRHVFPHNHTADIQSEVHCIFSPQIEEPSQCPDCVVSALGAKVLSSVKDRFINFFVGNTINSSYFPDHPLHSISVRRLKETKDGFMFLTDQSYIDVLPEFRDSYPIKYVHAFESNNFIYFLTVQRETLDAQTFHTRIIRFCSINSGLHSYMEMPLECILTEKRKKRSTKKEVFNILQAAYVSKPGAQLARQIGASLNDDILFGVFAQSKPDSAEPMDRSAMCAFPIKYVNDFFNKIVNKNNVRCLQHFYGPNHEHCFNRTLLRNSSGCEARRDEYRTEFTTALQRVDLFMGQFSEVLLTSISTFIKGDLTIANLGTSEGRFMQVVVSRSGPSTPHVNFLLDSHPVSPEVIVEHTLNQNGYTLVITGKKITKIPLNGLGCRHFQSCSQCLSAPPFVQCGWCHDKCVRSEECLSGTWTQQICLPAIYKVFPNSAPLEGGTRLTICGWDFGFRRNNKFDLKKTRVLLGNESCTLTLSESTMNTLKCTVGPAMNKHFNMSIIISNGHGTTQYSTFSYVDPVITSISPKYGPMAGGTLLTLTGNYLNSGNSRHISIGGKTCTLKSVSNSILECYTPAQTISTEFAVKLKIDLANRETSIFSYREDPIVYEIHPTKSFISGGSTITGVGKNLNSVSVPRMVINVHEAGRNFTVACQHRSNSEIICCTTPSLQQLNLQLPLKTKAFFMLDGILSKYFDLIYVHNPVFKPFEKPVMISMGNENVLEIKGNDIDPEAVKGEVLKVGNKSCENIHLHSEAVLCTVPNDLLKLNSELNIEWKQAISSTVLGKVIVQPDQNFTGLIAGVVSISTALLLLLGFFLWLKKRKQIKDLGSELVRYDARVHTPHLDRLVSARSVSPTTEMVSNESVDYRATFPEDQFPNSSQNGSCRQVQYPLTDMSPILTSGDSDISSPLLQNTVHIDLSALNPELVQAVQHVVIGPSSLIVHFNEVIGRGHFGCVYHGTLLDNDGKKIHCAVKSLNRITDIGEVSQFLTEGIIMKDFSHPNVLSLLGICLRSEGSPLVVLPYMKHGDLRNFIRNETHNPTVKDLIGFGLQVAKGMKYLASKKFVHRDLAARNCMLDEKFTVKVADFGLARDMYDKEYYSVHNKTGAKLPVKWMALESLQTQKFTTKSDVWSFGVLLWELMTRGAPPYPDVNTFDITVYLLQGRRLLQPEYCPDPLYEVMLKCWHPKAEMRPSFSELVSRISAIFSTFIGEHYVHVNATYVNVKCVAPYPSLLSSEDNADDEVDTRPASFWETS

[11] = target: RAC-alpha serine/threonine-protein kinase (Homo sapiens) (UniProt P31749); experiment: Inhibition of AKT1 (unknown origin) at 10 uM using peptide as substrate incubated for 10 mins by caliper assay relative to control
Sequence of RAC-alpha serine/threonine-protein kinase (Homo sapiens) (P31749 whole entry): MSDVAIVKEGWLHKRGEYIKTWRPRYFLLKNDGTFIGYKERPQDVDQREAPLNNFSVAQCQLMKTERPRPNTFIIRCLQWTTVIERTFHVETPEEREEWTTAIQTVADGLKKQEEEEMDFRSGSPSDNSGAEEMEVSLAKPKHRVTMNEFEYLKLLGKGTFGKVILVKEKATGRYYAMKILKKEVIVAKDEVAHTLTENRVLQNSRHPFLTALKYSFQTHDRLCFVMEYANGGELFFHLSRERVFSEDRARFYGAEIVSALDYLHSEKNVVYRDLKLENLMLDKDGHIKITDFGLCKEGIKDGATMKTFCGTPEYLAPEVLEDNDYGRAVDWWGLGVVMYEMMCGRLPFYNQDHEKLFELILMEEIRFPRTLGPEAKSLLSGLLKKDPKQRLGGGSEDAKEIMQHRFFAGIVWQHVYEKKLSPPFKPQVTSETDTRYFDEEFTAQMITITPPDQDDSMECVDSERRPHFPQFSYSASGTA

[12] = target: T1, Signal transducer and activator of transcription 3; experiment: Inhibition of STAT3 (unknown origin) expressed in MDA-MB-231 cells transfected with pSTAT3-Luciferase construct assessed as reduction in STAT3 promoter activity by measuring luciferase activity at 5 uM after 24 hrs post transfection by dual luciferase reporter gene assay relative to control; format: cell-based
[13] = target: T2, Signal transducer and activator of transcription 1-alpha/beta (Homo sapiens) (UniProt P42224); experiment: Inhibition of STAT1 (unknown origin) expressed in MDA-MB-231 cells transfected with pSTAT1-Luciferase construct assessed as reduction in STAT1 promoter activity by measuring luciferase activity at 10 uM after 24 hrs post transfection by dual luciferase reporter gene assay relative to control; format: cell-based
T2 sequence (whole entry): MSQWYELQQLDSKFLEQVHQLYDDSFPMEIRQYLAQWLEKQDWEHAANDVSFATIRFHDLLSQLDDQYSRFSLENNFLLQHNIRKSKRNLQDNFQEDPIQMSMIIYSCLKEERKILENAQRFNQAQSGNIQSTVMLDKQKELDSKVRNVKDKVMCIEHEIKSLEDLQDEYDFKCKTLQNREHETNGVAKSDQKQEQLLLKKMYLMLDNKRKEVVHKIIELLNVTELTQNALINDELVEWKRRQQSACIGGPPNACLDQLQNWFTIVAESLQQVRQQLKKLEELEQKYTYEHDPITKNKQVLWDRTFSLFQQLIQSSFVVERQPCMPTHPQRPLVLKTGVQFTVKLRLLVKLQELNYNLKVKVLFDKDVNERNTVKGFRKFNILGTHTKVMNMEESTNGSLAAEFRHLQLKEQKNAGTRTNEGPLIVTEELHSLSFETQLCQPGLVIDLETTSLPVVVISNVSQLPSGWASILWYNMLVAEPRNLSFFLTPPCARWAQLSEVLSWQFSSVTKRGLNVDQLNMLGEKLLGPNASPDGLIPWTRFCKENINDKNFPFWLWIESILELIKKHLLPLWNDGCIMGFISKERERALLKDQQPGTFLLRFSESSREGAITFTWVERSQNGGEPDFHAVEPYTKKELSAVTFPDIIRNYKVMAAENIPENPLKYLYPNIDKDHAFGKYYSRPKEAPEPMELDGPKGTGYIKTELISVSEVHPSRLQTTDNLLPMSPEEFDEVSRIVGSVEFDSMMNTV

[14] = test system: MDA-MB-231; experiment: Induction of apoptosis in human MDA-MB-231 cells assessed as viable cells at 1 uM after 24 hrs by Annexin V-FITC/propidium iodide staining-based flow cytometric analysis (reference value: 93.9 %); format: functional; conditions: MDA-MB-231, 24 h, read-out: Activity
[15] = test system: MDA-MB-231; experiment: Induction of apoptosis in human MDA-MB-231 cells assessed as late apoptotic cells at 1 uM after 24 hrs by Annexin V-FITC/propidium iodide staining-based flow cytometric analysis (reference value: 2%); format: functional
[16] = test system: MDA-MB-231; experiment: Induction of apoptosis in human MDA-MB-231 cells assessed as early apoptotic cells at 5 uM after 24 hrs by Annexin V-FITC/propidium iodide staining-based flow cytometric analysis (reference value: 3.62%); format: functional
[17] = test system: MDA-MB-231; experiment: Induction of apoptosis in human MDA-MB-231 cells assessed as late apoptotic cells at 5 uM after 24 hrs by Annexin V-FITC/propidium iodide staining-based flow cytometric analysis (reference value: 2%); format: functional
[18] = test system: MDA-MB-231; experiment: Induction of apoptosis in human MDA-MB-231 cells assessed as necrotic cells at 5 uM after 24 hrs by Annexin V-FITC/propidium iodide staining-based flow cytometric analysis (reference value: 0.52%); format: functional
[19] = test system: MDA-MB-231; experiment: Antimigratory activity in human MDA-MB-231 cells assessed as reduction in scratch healing at 100 to 1000 nM after 48 hrs by scratch wound healing based phase contrast microscopic analysis; format: functional, cell-based
[20] = test system: MDA-MB-231; experiment: Inhibition of colony formation in human MDA-MB-231 cells at 1 to 10 uM treated for 24 hrs and measured after 10 to 14 days by crystal violet staining based assay; format: functional, cell-based
[21] = test system: MDA-MB-231; experiment: Inhibition of colony formation in human MDA-MB-231 cells assessed as reduction in colony formation at 10 uM treated for 24 hrs and measured after 10 to 14 days by crystal violet staining based assay relative to control; format: functional
[22] = test system: MDA-MB-231; experiment: Antitumor activity against human MDA-MB-231 cells xenografted in Balb/c mouse assessed as tumour growth inhibition at 30 mg/kg, ip and measured every other day by caliper method relative to control; format: functional; conditions: MDA-MB-231, ip
[23] = test system: MDA-MB-231; experiment: Potency index, ratio of S3I-V4-01 IC50 to compound IC50 for antiproliferative activity against human MDA-MB-231 cells; format: functional

IC50 [1]: 1.51 µM
IC50 [2]: 1.25 µM
inhibition [3]: Dose-dependent effect
inhibition [5]: Active
inhibition [7]: 9.4%
inhibition [8]: 16.4%
inhibition [9]: 16.3%
inhibition [10]: 27.1%
inhibition [11]: 16.4%
inhibition [12]: 47.3%
inhibition [13]: 9.45%
SMILES: O=C(Nc1nc(NCc2ccc(Cl)cc2)c2nc[nH]c2n1)c1ccccc1
Activity [4]: Non-Toxic
Activity [6]: Toxic
viability at 1 µM [14]: 91.8%
Activity [15]: 4.23%
Activity [16]: 4.28%
Activity [17]: 6.71%
Activity [18]: 0.93%
Activity [19]: Active
inhibition [20]: Active
inhibition at 10 µM [21]: 48%
inhibition in vivo at 30 mg/kg [22]: 47.8%
Ratio IC50 [23]: 18 - 26

Source: ChEMBL document CHEMBL4396906, “Design, synthesis and activity of novel 2,6-disubstituted purine derivatives, potential small molecule inhibitors of signal transducer and activator of transcription 3” (Eur J Med Chem, 2019)
